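48-hour exposure; five concentrations; linearly interpolated endpoints. TGI is the concentration that stops growth completely.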
Columns and labels:
Test in all cases: growth of human tumour cells (NCI), 48 h
786-0 renal = tested on: 786-0 renal
A498 renal = tested on: A498 renal
A549 NSCLC = tested on: A549 NSCLC
ACHN renal = tested on: ACHN renal
BT-549 breast = tested on: BT-549 breast
CAKI-1 renal = tested on: CAKI-1 renal
CCRF-CEM leukemia = tested on: CCRF-CEM leukemia
COLO 205 colon = tested on: COLO 205 colon
DU-145 prostate = tested on: DU-145 prostate
EKVX NSCLC = tested on: EKVX NSCLC
HCC-2998 colon = tested on: HCC-2998 colon
HCT-116 colon = tested on: HCT-116 colon
HCT-15 colon = tested on: HCT-15 colon
HL-60(TB) leukemia = tested on: HL-60(TB) leukemia
HOP-62 NSCLC = tested on: HOP-62 NSCLC
HOP-92 NSCLC = tested on: HOP-92 NSCLC
HS 578T breast = tested on: HS 578T breast
HT29 colon = tested on: HT29 colon
IGROV1 ovarian = tested on: IGROV1 ovarian
K-562 leukemia = tested on: K-562 leukemia
KM12 colon = tested on: KM12 colon
LOX IMVI melanoma = tested on: LOX IMVI melanoma
M14 melanoma = tested on: M14 melanoma
MALME-3M melanoma = tested on: MALME-3M melanoma
MCF7 breast = tested on: MCF7 breast
MDA-MB-231 breast = tested on: MDA-MB-231 breast
MDA-MB-435 = tested on: MDA-MB-435
MDA-N = tested on: MDA-N
MOLT-4 leukemia = tested on: MOLT-4 leukemia
NCI-H226 lung = tested on: NCI-H226 lung
NCI-H23 lung = tested on: NCI-H23 lung
NCI-H460 lung = tested on: NCI-H460 lung
NCI-H522 lung = tested on: NCI-H522 lung
NCI/ADR-RES ovarian = tested on: NCI/ADR-RES ovarian
OVCAR-3 ovarian = tested on: OVCAR-3 ovarian
OVCAR-4 ovarian = tested on: OVCAR-4 ovarian
OVCAR-5 ovarian = tested on: OVCAR-5 ovarian
OVCAR-8 ovarian = tested on: OVCAR-8 ovarian
PC-3 prostate = tested on: PC-3 prostate
RPMI-8226 leukemia = tested on: RPMI-8226 leukemia
RXF 393 renal = tested on: RXF 393 renal
SF-268 CNS = tested on: SF-268 CNS
SF-295 CNS = tested on: SF-295 CNS
SF-539 CNS = tested on: SF-539 CNS
SK-MEL-2 melanoma = tested on: SK-MEL-2 melanoma
SK-MEL-28 melanoma = tested on: SK-MEL-28 melanoma
SK-MEL-5 melanoma = tested on: SK-MEL-5 melanoma
SK-OV-3 ovarian = tested on: SK-OV-3 ovarian
SN12C renal = tested on: SN12C renal
SNB-19 CNS = tested on: SNB-19 CNS
SNB-75 CNS = tested on: SNB-75 CNS
SR leukemia = tested on: SR leukemia
SW-620 colon = tested on: SW-620 colon
T-47D breast = tested on: T-47D breast
TK-10 renal = tested on: TK-10 renal
U251 CNS = tested on: U251 CNS
UACC-257 melanoma = tested on: UACC-257 melanoma
UACC-62 melanoma = tested on: UACC-62 melanoma
UO-31 renal = tested on: UO-31 renal
DLD-1 colon = tested on: DLD-1 colon
DMS 114 small cell lung = tested on: DMS 114 small cell lung
DMS 273 small cell lung = tested on: DMS 273 small cell lung
HOP-18 NSCLC = tested on: HOP-18 NSCLC
KM20L2 colon = tested on: KM20L2 colon
M19-MEL melanoma = tested on: M19-MEL melanoma
SNB-78 CNS = tested on: SNB-78 CNS
XF 498 CNS = tested on: XF 498 CNS

`C=C1C(=O)O[C@H]2C/C(C)=C/CC[C@@]3(C)O[C@](C)(CC[C@@H]3I)[C@@H](I)C[C@@H]12` gave a TGI (786-0 renal) of 10.9 µM, a TGI (A498 renal) of 17.5 µM and a TGI (A549 NSCLC) of 18.2 µM. It also gave a TGI (ACHN renal) of 13.6 µM, a TGI (BT-549 breast) of 12.4 µM and a TGI (CAKI-1 renal) of 14 µM. For the same compound, the TGI (CCRF-CEM leukemia) was 13.3 µM, the TGI (COLO 205 colon) was 12.5 µM and the TGI (DU-145 prostate) was 11.8 µM. It also gave a TGI (EKVX NSCLC) of 14.3 µM, a TGI (HCC-2998 colon) of 10.8 µM and a TGI (HCT-116 colon) of 9.51 µM. It also gave a TGI (HCT-15 colon) of 12.2 µM, a TGI (HL-60(TB) leukemia) of 20.2 µM and a TGI (HOP-62 NSCLC) of 15.6 µM. It also gave a TGI (HOP-92 NSCLC) of 13 µM, a TGI (HS 578T breast) of 26 µM and a TGI (HT29 colon) of 14.9 µM. It also gave a TGI (IGROV1 ovarian) of 6.62 µM, a TGI (K-562 leukemia) of 29.9 µM and a TGI (KM12 colon) of 18.5 µM. It also gave a TGI (LOX IMVI melanoma) of 6.34 µM, a TGI (M14 melanoma) of 27.1 µM and a TGI (MALME-3M melanoma) of 14.7 µM. It also gave a TGI (MCF7 breast) of 9.61 µM, a TGI (MDA-MB-231 breast) of 14.7 µM and a TGI (MDA-MB-435) of 11.7 µM. It also gave a TGI (MDA-N) of 10.9 µM, a TGI (MOLT-4 leukemia) of 13.6 µM and a TGI (NCI-H226 lung) of 2.13 µM. For the same compound, the TGI (NCI-H23 lung) was 18.5 µM, the TGI (NCI-H460 lung) was 13.2 µM and the TGI (NCI-H522 lung) was 8.64 µM. For the same compound, the TGI (NCI/ADR-RES ovarian) was 5.65 µM, the TGI (OVCAR-3 ovarian) was 8.63 µM and the TGI (OVCAR-4 ovarian) was 14.3 µM. The TGI (OVCAR-5 ovarian) was 26.2 µM, the TGI (OVCAR-8 ovarian) was 10.1 µM and the TGI (PC-3 prostate) was 22.9 µM. For the same compound, the TGI (RPMI-8226 leukemia) was 5.12 µM, the TGI (RXF 393 renal) was 12.7 µM and the TGI (SF-268 CNS) was 14.4 µM. It also gave a TGI (SF-295 CNS) of 15 µM, a TGI (SF-539 CNS) of 14.4 µM and a TGI (SK-MEL-2 melanoma) of 25.8 µM. It also gave a TGI (SK-MEL-28 melanoma) of 14.1 µM, a TGI (SK-MEL-5 melanoma) of 9.92 µM and a TGI (SK-OV-3 ovarian) of 14.4 µM. For the same compound, the TGI (SN12C renal) was 16.4 µM, the TGI (SNB-19 CNS) was 13.5 µM and the TGI (SNB-75 CNS) was 12.4 µM. For the same compound, the TGI (SR leukemia) was 8.2 µM, the TGI (SW-620 colon) was 12.4 µM and the TGI (T-47D breast) was 15 µM. For the same compound, the TGI (TK-10 renal) was 12.4 µM, the TGI (U251 CNS) was 11.7 µM and the TGI (UACC-257 melanoma) was 12.7 µM. For the same compound, the TGI (UACC-62 melanoma) was 12 µM and the TGI (UO-31 renal) was 11.8 µM.

`N#Cc1cccc2c1Nc1ccccc1S2` was tested, and the TGI (786-0 renal) was over 100 µM, the TGI (A498 renal) was over 100 µM and the TGI (A549 NSCLC) was over 100 µM. It also gave a TGI (ACHN renal) of over 100 µM, a TGI (CAKI-1 renal) of over 100 µM and a TGI (CCRF-CEM leukemia) of over 100 µM. For the same compound, the TGI (COLO 205 colon) was over 100 µM, the TGI (DLD-1 colon) was over 100 µM and the TGI (DMS 114 small cell lung) was over 100 µM. For the same compound, the TGI (DMS 273 small cell lung) was over 100 µM, the TGI (EKVX NSCLC) was over 100 µM and the TGI (HCC-2998 colon) was over 100 µM. It also gave a TGI (HCT-116 colon) of over 100 µM, a TGI (HCT-15 colon) of over 100 µM and a TGI (HL-60(TB) leukemia) of over 100 µM. For the same compound, the TGI (HOP-18 NSCLC) was over 100 µM, the TGI (HOP-62 NSCLC) was over 100 µM and the TGI (HOP-92 NSCLC) was 92.3 µM. The TGI (HT29 colon) was over 100 µM, the TGI (IGROV1 ovarian) was over 100 µM and the TGI (K-562 leukemia) was over 100 µM. For the same compound, the TGI (KM12 colon) was over 100 µM, the TGI (KM20L2 colon) was over 100 µM and the TGI (LOX IMVI melanoma) was over 100 µM. For the same compound, the TGI (M14 melanoma) was over 100 µM, the TGI (M19-MEL melanoma) was over 100 µM and the TGI (MALME-3M melanoma) was over 100 µM. The TGI (MOLT-4 leukemia) was over 100 µM, the TGI (NCI-H226 lung) was over 100 µM and the TGI (NCI-H23 lung) was over 100 µM. The TGI (NCI-H460 lung) was over 100 µM, the TGI (NCI-H522 lung) was over 100 µM and the TGI (OVCAR-3 ovarian) was over 100 µM. For the same compound, the TGI (OVCAR-4 ovarian) was over 100 µM, the TGI (OVCAR-5 ovarian) was over 100 µM and the TGI (OVCAR-8 ovarian) was over 100 µM. It also gave a TGI (RPMI-8226 leukemia) of over 100 µM, a TGI (RXF 393 renal) of over 100 µM and a TGI (SF-268 CNS) of over 100 µM. For the same compound, the TGI (SF-295 CNS) was over 100 µM, the TGI (SF-539 CNS) was over 100 µM and the TGI (SK-MEL-2 melanoma) was over 100 µM. For the same compound, the TGI (SK-MEL-28 melanoma) was over 100 µM, the TGI (SK-MEL-5 melanoma) was over 100 µM and the TGI (SK-OV-3 ovarian) was over 100 µM. It also gave a TGI (SN12C renal) of over 100 µM, a TGI (SNB-19 CNS) of over 100 µM and a TGI (SNB-75 CNS) of over 100 µM. It also gave a TGI (SNB-78 CNS) of over 100 µM, a TGI (SR leukemia) of over 100 µM and a TGI (SW-620 colon) of over 100 µM. It also gave a TGI (TK-10 renal) of over 100 µM, a TGI (U251 CNS) of over 100 µM and a TGI (UACC-257 melanoma) of over 100 µM. It also gave a TGI (UACC-62 melanoma) of over 100 µM, a TGI (UO-31 renal) of over 100 µM and a TGI (XF 498 CNS) of over 100 µM.

From PubChem BioAssay (NCI)
